# Measured values reported in US20110160399A1, “HISTONE MODIFICATION INHIBITOR SPECIFIC TO TARGET GENE” (NIHON UNIVERSITY, priority 2008, published 2011).
# Assays:
# [1] = test system: HeLa (human uterine cervical cancer cell line); assay: Cell proliferation assay (WST-8) on HeLa cells; assay type: cell-based; details: 72 hours, various concentrations, WST-8, FIG. 3, FIG. 4
# Method: Next, the synthesized compounds were verified by WST-8 assay for their ability to suppress cancer cell proliferation.
# Cell lines of HeLa (human uterine cervical cancer cell line), LOVO, RKO and SW480 (each of which was a human large bowel cancer cell line) were each cultured at 37° C. under 5% carbon dioxide conditions using Dulbecco's modified Eagle's medium (DMEM, Nacalai Tesque, Inc., Japan) supplemented with 10% fetal bovine serum (FBS: JRH bioscience, USA), antibiotics (50 U/ml penicillin and 50 μg/ml streptomycin) and 1 mM sodium pyruvate. Single-layered cells grown to 80-90% confluency on 10 cm cell culture dishes were washed with D-PBS(−) (Nacalai Tesque, Inc., Japan) and then released from the dishes by being treated with a phenol red-containing 2.5 g/L-Trypsine/1 mmol/L EDTA solution (Nacalai Tesque, Inc., Japan). The released cells were adjusted and maintained in fresh medium.
# Each cell line seeded at 3×10^3 cells/well in a MICROTEST tissue culture plate (96 well, FALCON) was cultured at 37° C. under 5% carbon dioxide conditions for 24 hours, and then cultured in the presence of various concentrations of PI polyamide for an additional 72 hours. After completion of the culture, 10 μl of viable cell counting reagent SF (Nacalai Tesque, Inc., Japan) was added to each well and the absorbance at 450 nm was measured by ARVO EX (PerkinElmer). During the period from reagent addition until assay, incubation was continued at 37° C. in the presence of 5% CO2 until the absorbance reached about 1.2 to 2.0 in the control sample where only 50% DMSO was added to the cells.
# [2] = test system: histone deacetylase (HDAC); assay: HDAC activity assay (HDAC Fluorimetric Assay/Drug Discovery Kit); assay type: biochemical, human; details: HDAC-containing HeLa cell nuclear fraction, 37°C for 1 hour, various concentrations, FIG. 2
# Method: To verify whether the activity of histone deacetylase (HDAC) was inhibited by compounds composed of the synthesized SAHA derivatives and polyamides attached to each other, an HDAC Fluorimetric Assay/Drug Discovery Kit (BIOMOL international) was used in the experiment. Although details followed the instructions of the kit manufacturer, an HDAC-containing HeLa cell (human uterine cervical cancer cell line) nuclear fraction was added to an acetylation substrate and incubated at 37° C. for 1 hour in the presence of various concentrations of the synthesized compounds or trichostatin A (hereinafter referred to as TSA) used as a positive control, followed by addition of the developer included in the kit to stop the HDAC-catalyzed reaction. Then, the samples were transferred to a 96-well assay plate and measured with ARVO EX (Perkin Elmer) for emission at 460 nm from the reaction product upon excitation at 360 nm.
# [3] = test system: MDA-MB231 breast cancer cells; assay: Cell proliferation assay (II), trypan blue cell counts; assay type: cell-based; details: after culture for 72 hours, FIG. 12
# Method: MDA-MB231 breast cancer cells (1×10^5 cells) were cultured in 6 cm diameter dishes using RPMI-1640 medium containing fetal bovine serum at a final concentration of 10%. For culture, the medium was supplemented with or without each polyamide (SAHA+p16NU PIP or SAHA+non-targeting PIP) at the final concentration indicated below.
# Starting from the initiation of culture, the following operation was repeated every 24 hours. Namely, after being observed under a microscope, the cells were harvested and counted to determine the numbers of viable cells […] and dead cells […]. As a result, proliferation of the cells and their survival rate were determined.
Molecule,suppression of HeLa cell proliferation [1],anti-HDAC activity [2],anti-HDAC activity ([2]; listed as conjugate between esterified SAHA and p16 PIP),"cell proliferation significantly suppressed, compared to untreated group or 1 μM SAHA+non-targeting PIP ([3]; MDA-MB231, 1 μM) [%]","cell proliferation significantly suppressed, compared to untreated group or 1 μM SAHA+non-targeting PIP ([3]; MDA-MB231, 2 μM)"
"CN(C)CCCNC(=O)CCNC(=O)c1cc(NC(=O)c2cc(NC(=O)c3nc(NC(=O)CCCNC(=O)c4cc(NC(=O)c5nc(NC(=O)c6nc(NC(=O)CCNC(=O)CCNC(=O)c7ccc(NC(=O)CCCCCCC(=O)NO)cc7)cn6C)cn5C)cn4C)cn3C)cn2C)cn1C [SAHA+non-targeting PIP, SAHA-ββImPyPyγImImPyβDp]",not suppressed,confirmed to have anti-HDAC activity,–,–,–
"O=C(CCCCCCC(=O)Nc1ccccc1)NO [SAHA, suberoylanilide hydroxamic acid, reference compound]",did not suppress,–,–,–,–
"CC(/C=C/C(=O)NO)=C\[C@@H](C)C(=O)c1ccc(N(C)C)cc1 [TSA, trichostatin A, reference compound]",proliferation inhibition,high activity,–,–,–
"COC(=O)CCCCCCC(=O)Nc1ccc(C(=O)NCCC(=O)NCCC(=O)Nc2cn(C)c(C(=O)Nc3cc(C(=O)Nc4cc(C(=O)NCCC(=O)Nc5cn(C)c(C(=O)Nc6cc(C(=O)NCCCC(=O)Nc7cn(C)c(C(=O)Nc8cc(C(=O)NCCC(=O)Nc9cn(C)c(C(=O)Nc%10cn(C)c(C(=O)Nc%11cc(C(=O)NCCC(=O)NCCCN(C)C)n(C)c%11)n%10)n9)n(C)c8)n7)n(C)c6)n5)n(C)c4)n(C)c3)n2)cc1 [esterified SAHA+p16 PIP, 4-(8-methoxy-8-oxooctanamido)benzoyl-ββImPyPyβImPyγImPyβImIm PyβDp]",not suppressed,no HDAC activity,did not inhibit HDAC activity,–,–
SAHA-(PEG) ββImPyPyβImPyγImPyβImImPyβDp [SAHA+ether linker+p16 PIP],–,confirmed to have anti-HDAC activity,–,–,–
SAHA-H2NββPyPyβPyPyPyγImImImβPyImβDp [SAHA+p16NU PIP],–,–,–,83,about 60%
